Source: patent US20230149420A1, “ANTI-INFLAMMATORY IMMUNOENHANCER” (SCENT SCIENCE INTERNATIONAL INC., priority 2020, published 2023)

Tests used:
[1] = test system: basophils in the whole blood cells; test: ratio of basophils in whole blood cells, Siemens Advia 120 (Example 14); type: in vivo, C57/BL6 mice; conditions: 200 μl of 1% solution i.p., blood 16 hr later, vs saline
Description: About 3-month-old C57/BL6 mice were intraperitoneally injected with 200 μl of saline (control) or 1% solution of respective compounds (dissolved in saline). Blood was collected 16 hr later, and the ratio of basophils in the whole blood cells was measured using Siemens Advia 120.

[2] = test system: neutrophils in the whole blood cells; test: ratio of neutrophils in whole blood cells, Siemens Advia 120 (Examples 12, 13); type: in vivo, C57/BL6 mice; conditions: 200 μl of 1% solution i.p., blood 16 hr later, vs saline
Description: About 3-month-old C57/BL6 mice were intraperitoneally injected with 200 μl of saline (control) or 1% solution of respective compounds (dissolved in saline). Blood was collected 16 hr later, and the ratio of neutrophils in the whole blood cells was measured using Siemens Advia 120.

[3] = test system: basophils in the peripheral blood; test: number of basophils in peripheral blood, Siemens Advia 120 (Example 8); type: in vivo, C57/BL6 mice; conditions: 200 μl of 1% solution i.p., blood 16 hr later, vs saline
Description: About 3-month-old C57/BL6 mice were intraperitoneally injected with 200 μl of saline (control) or 1% solution of respective compounds (dissolved in saline). Blood was collected 16 hr later, and the number of basophils in the peripheral blood was measured using Siemens Advia 120.

[4] = test system: lymphocytes in the peripheral blood; test: number of lymphocytes in peripheral blood, Siemens Advia 120 (Example 9); type: in vivo, C57/BL6 mice; conditions: 200 μl of 1% solution i.p., blood 16 hr later, vs saline
Description: About 3-month-old C57/BL6 mice were intraperitoneally injected with 200 μl of saline (control) or 1% solution of respective compounds (dissolved in saline). Blood was collected 16 hr later, and the number of lymphocytes in the peripheral blood was measured using Siemens Advia 120.

[5] = test system: monocytes in the whole blood cells; test: ratio of monocytes in whole blood cells, Siemens Advia 120 (Examples 10, 11); type: in vivo, C57/BL6 mice; conditions: 200 μl of 1% solution i.p., blood 16 hr later, vs saline
Description: About 3-month-old C57/BL6 mice were intraperitoneally injected with 200 μl of saline (control) or 1% solution of respective compounds (dissolved in saline). Blood was collected 16 hr later, and the ratio of monocytes in the whole blood cells was measured using Siemens Advia 120.
About 3-month-old C57/BL6 mice were intraperitoneally injected with 200 μl of saline (control) or 1% allyl isothiocyanate solution (dissolved in saline). Blood was collected 16 hr later, and the ratio of monocytes in the whole blood cells was measured using Siemens Advia 120.

[6] = test system: neutrophils in the peripheral blood; test: number of neutrophils in peripheral blood, Siemens Advia 120 (Examples 4, 5); type: in vivo, C57/BL6 mice; conditions: 200 μl of 1% solution i.p., blood 16 hr later, vs saline
Description: About 3-month-old C57/BL6 mice were intraperitoneally injected with 200 μl of saline (control) or 1% solution of respective compounds (dissolved in saline). Blood was collected 16 hr later, and the number of neutrophils in the peripheral blood was measured using Siemens Advia 120.

[7] = test system: monocytes in the peripheral blood; test: number of monocytes in peripheral blood, Siemens Advia 120 (Examples 6, 7); type: in vivo, C57/BL6 mice; conditions: 200 μl of 1% solution i.p., blood 16 hr later, vs saline
Description: About 3-month-old C57/BL6 mice were intraperitoneally injected with 200 μl of saline (control) or 1% solution of respective compounds (dissolved in saline). Blood was collected 16 hr later, and the number of monocytes in the peripheral blood was measured using Siemens Advia 120.
About 3-month-old C57/BL6 mice were intraperitoneally injected with 200 μl of saline (control) or 1% allyl isothiocyanate solution (dissolved in saline). Blood was collected 16 hr later, and the number of monocytes in the peripheral blood was measured using Siemens Advia 120.

[8] = blood stress hormone (Corticosterone) after 2MT stimulation; type: in vivo
[9] = test system: peripheral blood mononuclear cells (PBMC); test: scRNAseq classification of PBMC after intraperitoneal 2MT (Example 1); type: in vivo, C57/BL6 mice; conditions: 200 μl of 1% 2MT solution i.p., blood 16 hr later
Description: (§1) About 3-month-old C57/BL6 mice were intraperitoneally administered with 200 μl of saline (control) or 1% 2MT solution (dissolved in saline). Blood was collected 16 hr later, and peripheral blood mononuclear cells (PBMC) were separated using Ficoll Paque PREMIUM 1.084 (GE Healthcare). A single cell RNA cDNA library was prepared from the separated cells by using the 10× Chromium preparation system, Chromium Single Cell 3′ Library & Gel Bead Kit v3, and sequencing was performed using the illumina HiSeq. The obtained scRNAseq data was analyzed according to the method shown in Non-Patent Literatures 4 and 5. The results of clustering using the gene expression of each cell as an index were visualized by tSNE, and the results are shown in FIG. 1A-C.

[10] = test system: monocytes in the peripheral blood; test: flow cytometry of monocytes in peripheral blood, 2MT i.p./odor, corticosterone (Example 3); type: in vivo, C57/BL6 mice
Description: (§2) About 3-month-old C57/BL6 mice were intraperitoneally administered with 200 μl of saline (control) or 1% 2MT solution (dissolved in saline). Blood was collected 16 hr later, and the number of various leukocytes in the peripheral blood was measured by a flow cytometry method by peroxidase staining and a two-angle laser flow cytometry method. The ratios of neutrophils and monocytes in the peripheral blood under respective conditions that were clarified by the measurement are shown.

[11] = test system: peripheral blood mononuclear cells (PBMC); test: scRNAseq gene expression changes in PBMC cell clusters, control vs 2MT (Example 2); type: in vivo, C57/BL6 mice; conditions: 2MT i.p. vs control, 16 hr
Description: as §1, with “1A-C. […] Based on the data of scRNAseq performed in Example 1, the comparison results of the changes in the expression of each gene in the cells present in each cluster between the control conditions and the 2MT administration conditions are shown in FIG. 2. The genes whose expression changed by 2MT stimulation are shown on the top of the table, and the functional categories of the genes are shown above them. The numbers in the table indicate gene expression levels, and the density of shading indicates the degree of increase in gene expression.” for “1A-C.”

[12] = test system: neutrophils in the peripheral blood; test: flow cytometry of neutrophils in peripheral blood, 2MT i.p./odor, corticosterone (Example 3); type: in vivo, C57/BL6 mice
Description: as §2

[13] = test system: lymphocytes in the whole blood cells; test: ratio of lymphocytes in whole blood cells, Siemens Advia 120 (Example 15); type: in vivo, C57/BL6 mice; conditions: 1% solution i.p., blood 16 hr later, vs saline
Description: About 3-month-old C57/BL6 mice were intraperitoneally injected with […] saline (control) or 1% solution of respective compounds (dissolved in saline). Blood was collected 16 hr later, and the ratio of lymphocytes in the whole blood cells was measured using Siemens Advia 120.

[14] = intraperitoneal injection vs saline i.p., blood 16 hr later

Compound | ratio of neutrophils in the whole blood cells [2] | number of basophils in the peripheral blood [3] | number of lymphocytes in the peripheral blood [4] | ratio of monocytes in the whole blood cells [5] | neutrophils in the peripheral blood (number) [6] | number of monocytes in the peripheral blood [7] | further results
Cc1oc2ccccc2c1C [2,3-Dimethylbenzofuran] | increases | increases |  |  |  |  | ratio of basophils in the whole blood cells [1]: increases
Cc1cccnc1C [2,3-dimethylpyridine] |  |  | increases |  |  |  | 
CC1CCC(C)O1 (stereo not drawn) [2,5-Dimethyltetrahydrofuran] |  | increases |  | increases |  |  | ratio of basophils in the whole blood cells [1]: increases
Cc1ccc(C)s1 [2,5-Dimethylthiophene] |  | increases | increases |  | increase |  | 
CC(=O)c1ncc(C)nc1C [2-Acetyl-3,5-dimethy pyrazine] |  | increases |  |  |  | increase | 
CC(=O)c1ccc(C)o1 [2-Acetyl-5-methylfuran] | increases | increases |  |  |  |  | ratio of basophils in the whole blood cells [1]: increases
CC(=O)c1cccc(C)n1 [2-Acetyl-6-methylpyridine] |  |  | increases |  |  |  | 
CC1=NCCS1 [2-Methyl-2-thiazoline] | increases |  |  | increases | increase | increase | blood stress hormone (Corticosterone) [8]: increases; numbers of monocytes (Mono 1, Mono 2) and dendritic cells (DC) ([9]; vs saline): drastically increases; dendritic cells in PBMC ([9]; control 0.83%): 2.2%; percentage of monocytes in PBMC ([9]; control 3.7%): 23.7%; number of monocytes [10, 14]: increased; number of monocytes ([10]; odor stimulation vs no odor): increased; expression levels of Ccr1, Ccr2, Ccr12, and Cxc12 (genes that promote blood cell migration) [11]: increased; expression levels of Lyz2, F13a1, Cd14, Chil3, and Hp (biological defense response) [11]: increased; expression levels of Nfkbia, Nfkbiz, and Socs3 (suppressors of NF-κB and JAK-STAT pathways) [11]: increased; number of neutrophils [12, 14]: increased; number of neutrophils ([12]; odor stimulation vs no odor): increased
CC1OCCC1S (stereo not drawn) [2-Methyl-3-tetrahydrofuranthiol] |  | increases |  | increases |  | increase | 
CCC1CSC(C)=N1 (stereo not drawn) [4-Ethyl-2-methyl-thiazoline] | increases |  |  | increases | increase |  | ratio of lymphocytes in the whole blood cells [13]: increases
O=S1(=O)CCN(c2ccccc2)CC1 [4-Phenyl-thiomorpholine-1,1-dioxide] |  |  | increases |  |  | increase | 
O=Cc1cncs1 [5-Formylthiazole] |  |  |  |  |  |  | ratio of lymphocytes in the whole blood cells [13]: increases
Cc1cncs1 [5-Methylthiazole] | increases |  |  | increases | increase |  | ratio of lymphocytes in the whole blood cells [13]: increases
COc1ccc2ncccc2c1 [6-Methoxyquinoline] | increases | increases |  | increases | increase | increase | ratio of basophils in the whole blood cells [1]: increases
C[C@]12C[C@H](O)[C@H]3[C@@H](CCC4=CC(=O)CC[C@@]43C)[C@@H]1CC[C@@H]2C(=O)CO [Corticosterone, reference compound] |  |  |  |  |  |  | number of monocytes [10, 14]: did not increase significantly; number of neutrophils [12, 14]: decreased
C1COCCN1 [Morpholine] |  |  | increases |  | increase | increase | 
(−)-Ambroxide |  |  | increases |  |  |  | 
